Results taken from US5665739A, “Substituted benzoylguanidines, process and their preparation, their use as pharmaceutical or diagnostic, and pharmaceutical containing them” (priority 1992, dated 1997).
pIC50: −log10 of the molar value.

Key:
Na^+ /H^+ exchanger = biological target: T1, Na^+ /H^+ exchanger (Oryctolagus cuniculus, UniProt P23791); test: Inhibition of the Na+/H+ exchanger of rabbit erythrocytes; assay type: cell-based; details: amiloride-sensitive Na+ influx, pH 7.4, 37° C.
T1 construct: endogenous in cells; host or cells: rabbit erythrocytes (blood of cholesterol-fed White New Zealand rabbits)
T1 sequence (P23791 whole entry): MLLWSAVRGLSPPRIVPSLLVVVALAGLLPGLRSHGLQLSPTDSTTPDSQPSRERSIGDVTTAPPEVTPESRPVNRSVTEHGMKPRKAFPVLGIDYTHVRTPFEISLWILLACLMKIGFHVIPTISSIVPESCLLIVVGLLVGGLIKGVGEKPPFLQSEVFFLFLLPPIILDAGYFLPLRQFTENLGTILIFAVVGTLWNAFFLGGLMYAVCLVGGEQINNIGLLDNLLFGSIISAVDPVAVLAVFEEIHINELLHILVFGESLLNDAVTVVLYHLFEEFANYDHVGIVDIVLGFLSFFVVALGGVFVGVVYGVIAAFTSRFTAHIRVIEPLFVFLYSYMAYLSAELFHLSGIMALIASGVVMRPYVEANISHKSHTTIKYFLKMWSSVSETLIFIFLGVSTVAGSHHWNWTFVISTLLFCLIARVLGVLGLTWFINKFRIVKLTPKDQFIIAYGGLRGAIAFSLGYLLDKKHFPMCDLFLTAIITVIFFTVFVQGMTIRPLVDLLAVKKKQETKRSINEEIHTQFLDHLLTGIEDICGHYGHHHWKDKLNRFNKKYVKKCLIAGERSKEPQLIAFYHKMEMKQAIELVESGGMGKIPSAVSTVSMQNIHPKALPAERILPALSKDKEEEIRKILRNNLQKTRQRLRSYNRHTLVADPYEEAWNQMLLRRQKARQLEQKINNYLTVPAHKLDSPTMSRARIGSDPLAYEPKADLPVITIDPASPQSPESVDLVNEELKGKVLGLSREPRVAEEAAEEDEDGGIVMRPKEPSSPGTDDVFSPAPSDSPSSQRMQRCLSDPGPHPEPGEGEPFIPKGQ
Source text: Inhibition of the Na^+ /H^+ exchanger of rabbit erythrocytes
White New Zealand rabbits (Ivanovas) were given a standard diet containing 2% of cholesterol for six weeks so as to activate the Na^+ /H^+ exchange in order to be able to determine the Na^+ influx into the erythrocytes via Na^+ /H^+ exchange by means of flame photometry. The blood was sampled from the auricular artery and made incoagulable by addition of 25 IE of potassium heparin. Part of each sample was used for a repeated hematocrit measurement by centrifuging. 100 μl aliquots were used for measuring the initial Na^+ content of the erythrocytes.
To determine the amiloride-sensitive sodium influx, 100 μl of each blood sample were incubated in in each case 5 ml of a hyperosmolaric salt/sucrose medium (mmol/l: 140 NaCl, 3 KCl, 150 sucrose, 0.1 ouabain, 20 tris-hydroxymethylaminomethane) at pH 7.4 and 37° C. […] The intracellular sodium content was determined by flame photometry.
The Na^+ net influx was calculated from the difference between the initial sodium values and the sodium content of the erythrocytes after incubation. The sodium influx which can be inhibited by amiloride was determined from the difference of the sodium content of the erythrocytes after incubation with and without amiloride 3×10^-4 mol/l. […]

[1] = test system: artificially induced ventricular fibrillation; details: rats' hearts; Eur. Heart J. 9 (suppl. 1): 167 (1988); cited from earlier work
[2] = in vivo; cited from earlier work

| SMILES | pIC50 (Na^+ /H^+ exchanger) | suppression of artificially induced ventricular fibrillation [1] | hypotensive and saluretic side effects [2] |
| --- | --- | --- | --- |
| NC(N)=NC(=O)c1ccc(Oc2ccc3ncccc3c2)c(C(F)(F)F)c1 [Example 17, 4-(6-Quinolinoxy)-3-trifluoromethylbenzoylguanidine] | 7.40 |  |  |
| NC(N)=NC(=O)c1nc(Cl)c(N)nc1N [amiloride, Amiloride] |  | suppressed completely | accompanied by a hypotensive and saluretic activity |
| CCN(c1nc(N)c(C(=O)N=C(N)N)nc1Cl)C(C)C [ethylisopropylamiloride, Ethylisopropylamiloride] |  | even more potent than amiloride itself |  |
| NC(N)=NC(=O)c1ccc(Oc2cccnc2)c(C(F)(F)F)c1 [Example 16, 4-(3-Pyridyloxy)-3-trifluoromethylbenzoylguanidine] | 7.52 |  |  |
